The values below come from patent publication US12552771B2, “Carboxylic acid containing azetidinyl compounds for the treatment of neurodegenerative diseases” (Celgene Corporation, priority 2021, dated 2026).

Some results are limits rather than exact numbers.

The target in this assay is T1, S1P5 receptors (Homo sapiens, UniProt Q9H228).
T1 construct: expressed in transfected cells; host or cells: CHO cells (membranes)
T1 sequence (Q9H228 whole entry): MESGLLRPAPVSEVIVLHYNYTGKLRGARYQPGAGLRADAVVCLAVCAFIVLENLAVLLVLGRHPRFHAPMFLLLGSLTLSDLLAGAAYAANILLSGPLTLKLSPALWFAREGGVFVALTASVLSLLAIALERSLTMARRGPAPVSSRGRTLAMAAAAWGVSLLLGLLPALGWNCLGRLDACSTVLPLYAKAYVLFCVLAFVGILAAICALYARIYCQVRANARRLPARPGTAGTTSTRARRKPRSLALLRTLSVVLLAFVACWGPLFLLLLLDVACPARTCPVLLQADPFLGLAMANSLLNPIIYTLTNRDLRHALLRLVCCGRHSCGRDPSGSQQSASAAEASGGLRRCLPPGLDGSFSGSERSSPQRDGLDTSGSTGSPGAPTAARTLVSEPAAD
Kind of assay: [35S]-GTPγS binding assay with CHO-S1P5 receptor membranes. The format is biochemical. As to conditions: membranes of CHO cells expressing recombinant S1P5 receptors; measure of S1P5 agonism. How it is done:
CHO cells expressing recombinant S1P5 receptors were cultured in 500 cm^2 culture trays and, once confluent, rinsed and detached with cell-lifting buffer (10 mM HEPES, 154 mM NaCl, 6.85 mM EDTA, pH 7.4). Cells were then pelleted by centrifugation, resuspended, and homogenized in membrane preparation buffer (10 mM HEPES and 10 mM EDTA, pH 7.4) using a Polytron PT 1200E homogenizer (Kinematica, Luzern, Switzerland). Cellular proteins were pelleted by centrifugation at 48,000×g at 4° C. for 30 minutes. The resulting supernatant was discarded, and the pellet was re-suspended again in membrane preparation buffer, homogenized for a second time, and then centrifuged again as described above. The final cellular protein pellet was suspended in ice cold resuspension buffer (10 mM HEPES and 0.1 mM EDTA, pH 7.4), divided into aliquots, and stored at −80° C. until use.
Functional binding assays for [^35]-GTPγS were performed in 96-well non-binding surface plates with a final volume of 200 μL. The test compounds were serially diluted in DMSO and added to assay plates using a Tecan D300E digital printer with a total volume of […]. The control sphingosine-1-phosphate (SiP) was prepared separately by preparing a 400 μM stock solution from a 100 nmol pellet of SiP in 10 mM Na2CO3 with 2% […]. The serial dilution of SiP was done using complete assay buffer (20 mM HEPES, 10 mM MgCl2, 100 mM NaCl, 1 mM EDTA, 0.1% fatty acid free bovine serum albumin (BSA), and 30 μg/mL saponin, pH 7.4) and transferred to wells already containing 0.4 μL DMSO. All the wells were then loaded to a total volume of 40 μL of complete assay buffer, except the non-specific binding (NSB) wells. For NSB wells, 40 μL/well of 50 μM GTPγS (Sigma Aldrich, cat #G8634, St. Louis, MO) was added to wells containing 0.4 μL of DMSO. The assay was started by the addition of 120 μL/well of CHO-S1P receptor membrane solution containing 40 μg/mL of membrane protein, 16.67 μM guanosine diphosphate (GDP; Sigma Aldrich, cat #G7127, St. Louis, MO), and 2.5 mg/mL of WGA PVT SPA beads in complete buffer. Assay plates were then sealed and incubated at room temperature with gentle agitation for 30 minutes. Next, 40 μL/well of 1 nM of [^35]-GTPγS (PerkinElmer, cat #NEG030X250UC, Waltham, MA) in basic assay buffer (20 mM HEPES, 10 mM MgCl2, 100 mM NaCl, and 1 mM EDTA, pH7.4) was added to the assay plates to yield a final concentration of 200 pM and the plates were further incubated for 40 minutes at room temperature with gentle agitation. The assay was terminated by centrifugation of the plates at 1000 rpm for 3 minutes using an Eppendorf 5810R centrifuge (Eppendorf, Hamburg, Germany) and G protein bound radioactivity was quantitated using a MicroBeta2 microplate scintillation counter (PerkinElmer, Waltham, MA). As G protein bound radioactivity directly correlates to receptor activation and coupling to the G protein, this assay is a measure of S1P5 agonism.
For `Cc1cc(C2CN(c3c(Cl)cccc3Cl)C2)cc(Cl)c1CN1CCC(C(=O)O)CC1` [Compound 51, 1-(2-chloro-4-(1-(2,6-dichlorophenyl)azetidin-3-yl)-6-methylbenzyl)-piperidine-4-carboxylic acid], the half-maximal effective concentration (EC50) (usually the concentration needed to bring the measured effect to its halfway point) was at most 10 nM.
`CCc1cc(C2CN(c3c(Cl)cccc3Cl)C2)cc(CC)c1CN1CCC(C(=O)O)CC1` [Compound 52, 1-(4-(1-(2,6-dichlorophenyl)azetidin-3-yl)-2,6-diethylbenzyl)piperidine-4-carboxylic acid]: the EC50 is at most 10 nM.
The same measure for `CC(C)c1cc(C2CN(c3c(Cl)cccc3Cl)C2)cc(C(C)C)c1CN1CCC(C(=O)O)CC1` [Compound 53, 1-(4-(1-(2,6-dichlorophenyl)azetidin-3-yl)-2,6-diisopropylbenzyl)piperidine-4-carboxylic acid]: 100 to 1000 nM.
The result for `O=C(O)C1CCN(Cc2ccc(C3CN(c4c(Cl)cccc4Cl)C3)c3ccccc23)CC1` [Compound 54, 1-((4-(1-(2,6-dichlorophenyl)azetidin-3-yl)naphthalen-1-yl)methyl)-piperidine-4-carboxylic acid] reads at most 10 nM; that for `CCc1cc(C2CN(c3c(Cl)cccc3Cl)C2)cc(C)c1CN1CCC(C(=O)O)CC1` [Compound 55, 1-(4-(1-(2,6-dichlorophenyl)azetidin-3-yl)-2-ethyl-6-methylbenzyl)-piperidine-4-carboxylic acid], at most 10 nM; that for `O=C(O)C1CCN(Cc2ccc(C3CN(c4c(Cl)cccc4Cl)C3)cc2C2CC2)CC1` [Compound 56, 1-(2-cyclopropyl-4-(1-(2,6-dichlorophenyl)azetidin-3-yl)benzyl)piperidine-4-carboxylic acid], at most 10 nM.
On to `Cc1cc(C2CN(c3c(Cl)cccc3Cl)C2)cc(C2CC2)c1CN1CCC(C(=O)O)CC1` [Compound 57, 1-(2-cyclopropyl-4-(1-(2,6-dichlorophenyl)azetidin-3-yl)-6-methylbenzyl)-piperidine-4-carboxylic acid], for which the EC50 is at most 10 nM.
The same measure for `Cc1cc(C2CN(c3c(Cl)cccc3Cl)C2)cc(C#N)c1CN1CCC(C(=O)O)CC1` [Compound 58, 1-(2-cyano-4-(1-(2,6-dichlorophenyl)azetidin-3-yl)-6-methylbenzyl)-piperidine-4-carboxylic acid]: 10 to 100 nM; for `Cc1cc(C2CN(c3c(Cl)cccc3Cl)C2)cc(C)c1CN1CC(C(=O)O)C1` [Compound 59, 1-(4-(1-(2,6-dichlorophenyl)azetidin-3-yl)-2,6-dimethylbenzyl)azetidine-3-carboxylic acid]: at most 10 nM.
The result for `Cc1cc(C2CN(c3c(Cl)cccc3Cl)C2)cc(C)c1CN1CC[C@@H](C(=O)O)C1` [Compound 60, (R)-1-(4-(1-(2,6-dichlorophenyl)azetidin-3-yl)-2,6-dimethylbenzyl) pyrrolidine-3-carboxylic acid] reads at most 10 nM; that for `Cc1cc(C2CN(c3c(Cl)cccc3Cl)C2)cc(C)c1CN1CCC(C(=O)O)C(C)C1` (stereo not drawn) [Compound 61, 1-(4-(1-(2,6-dichlorophenyl)azetidin-3-yl)-2,6-dimethylbenzyl)-3-methyl-piperidine-4-carboxylic acid], at most 10 nM.
The same measure for `Cc1cc(C2CN(c3c(Cl)cccc3Cl)C2)cc(C)c1CN1CC[C@H](C(=O)O)C1` [Compound 62, (S)-1-(4-(1-(2,6-dichlorophenyl)azetidin-3-yl)-2,6-dimethylbenzyl)-pyrrolidine-3-carboxylic acid]: at most 10 nM.
Consider `Cc1cc(C2CN(c3c(Cl)cccc3Cl)C2)cc(C)c1CN1CCC(C(=O)O)CC1C` (stereo not drawn) [Compound 63, 1-(4-(1-(2,6-dichlorophenyl)azetidin-3-yl)-2,6-dimethylbenzyl)-2-methyl-piperidine-4-carboxylic acid], for which the EC50 is 10 to 100 nM.
The same measure for `Cc1cc(C2CN(c3c(Cl)cccc3Cl)C2)cc(C)c1CN1CCC(C(=O)O)C(F)C1` (stereo not drawn) [Compound 64, 1-(4-(1-(2,6-dichlorophenyl)azetidin-3-yl)-2,6-dimethylbenzyl)-3-fluoro-piperidine-4-carboxylic acid]: at most 10 nM; for `Cc1cc(C2CN(c3c(Cl)cccc3Cl)C2)cc(C)c1CN1CCC(C(=O)O)CC1(C)C` (stereo not drawn) [Compound 65, 1-(4-(1-(2,6-dichlorophenyl)azetidin-3-yl)-2,6-dimethylbenzyl)-2,2-dimethylpiperidine-4-carboxylic acid]: 10 to 100 nM; for `Cc1cc(C2CN(c3c(C)cccc3F)C2)cc(C)c1CN1CCC(C(=O)O)CC1` [Compound 66, 1-(4-(1-(2-fluoro-6-methylphenyl)azetidin-3-yl)-2,6-dimethylbenzyl)-piperidine-4-carboxylic acid]: at most 10 nM.
The same measure for `Cc1cc(C2CN(c3c(C)cccc3Cl)C2)cc(C)c1CN1CCC(C(=O)O)CC1` [Compound 67, 1-(4-(1-(2-chloro-6-methylphenyl)azetidin-3-yl)-2,6-dimethylbenzyl)-piperidine-4-carboxylic acid]: at most 10 nM.
The same measure for `CCc1cccc(C)c1N1CC(c2cc(C)c(CN3CCC(C(=O)O)CC3)c(C)c2)C1` [Compound 68, 1-(4-(1-(2-ethyl-6-methylphenyl)azetidin-3-yl)-2,6-dimethylbenzyl)-piperidine-4-carboxylic acid]: at most 10 nM; for `CCc1cccc(CC)c1N1CC(c2cc(C)c(CN3CCC(C(=O)O)CC3)c(C)c2)C1` [Compound 69, 1-(4-(1-(2,6-diethylphenyl)azetidin-3-yl)-2,6-dimethylbenzyl)piperidine-4-carboxylic acid]: at most 10 nM.
Take `Cc1cc(C2CN(c3ccccc3C3CC3)C2)cc(C)c1CN1CCC(C(=O)O)CC1` [Compound 70, 1-(4-(1-(2-cyclopropylphenyl)azetidin-3-yl)-2,6-dimethylbenzyl)piperidine-4-carboxylic acid]: the EC50 lay in the range of 10 to 100 nM.
The result for `Cc1cc(C2CN(c3c(C)cccc3C3CC3)C2)cc(C)c1CN1CCC(C(=O)O)CC1` [Compound 71, 1-(4-(1-(2-cyclopropyl-6-methylphenyl)azetidin-3-yl)-2,6-dimethylbenzyl)-piperidine-4-carboxylic acid] reads at most 10 nM; that for `Cc1cc(C2CN(c3c(C)cccc3C(F)F)C2)cc(C)c1CN1CCC(C(=O)O)CC1` [Compound 72, 1-(4-(1-(2-(difluoromethyl)-6-methylphenyl)azetidin-3-yl)-2,6-dimethyl-benzyl)piperidine-4-carboxylic acid], 10 to 100 nM; that for `Cc1cc(C2CN(c3c(C)cccc3C(F)(F)F)C2)cc(C)c1CN1CCC(C(=O)O)CC1` [Compound 73, 1-(2,6-dimethyl-4-(1-(2-methyl-6-(trifluoromethyl)phenyl)azetidin-3-yl)-benzyl)piperidine-4-carboxylic acid], at most 10 nM.
The same measure for `Cc1cc(C2CN(c3c(C)cccc3C#N)C2)cc(C)c1CN1CCC(C(=O)O)CC1` [Compound 74, 1-(4-(1-(2-cyano-6-methylphenyl)azetidin-3-yl)-2,6-dimethylbenzyl)-piperidine-4-carboxylic acid]: at most 10 nM.
The same measure for `Cc1cc(C2CN(c3cccc4ccccc34)C2)cc(C)c1CN1CCC(C(=O)O)CC1` [Compound 75, 1-(2,6-dimethyl-4-(1-(naphthalen-1-yl)azetidin-3-yl)benzyl)piperidine-4-carboxylic acid]: 100 to 1000 nM.
Regarding `Cc1cc(C2CN(c3c(Cl)cccc3Cl)C2)cnc1CN1CCC(C(=O)O)CC1` [Compound 76, 1-((5-(1-(2,6-dichlorophenyl)azetidin-3-yl)-3-methylpyridin-2-yl)methyl)-piperidine-4-carboxylic acid], the 50% effective concentration (EC50) lay within 10 to 100 nM.
As for `Cc1cc(CN2CCC(C(=O)O)CC2)ncc1C1CN(c2c(Cl)cccc2Cl)C1` [Compound 77, 1-((5-(1-(2,6-dichlorophenyl)azetidin-3-yl)-4-methylpyridin-2-yl)methyl)-piperidine-4-carboxylic acid], the EC50 was 100 to 1000 nM.
